According to patent publication US20160222014A1, “COMPOUNDS FOR REGULATING FAK AND/OR SRC PATHWAYS” (ASANA BIOSCIENCES, LLC, priority 2013, published 2016):
Read-outs that look alike come from different tables or passages of the source.

Key:
[1] = target: T1, FAK phosphorylated at Y397 in HEK-FAK cell line overexpressing human FL FAK protein (Homo sapiens, UniProt Q05397); assay: Cell based assay, Phospho-FAK ELISA; conditions: HEK stb
T1 construct: expressed in transfected cells
From the text: D. Cell Based Assay-Phospho-FAK ELISA
The DuoSet IC ELISA (R&D systems—Cat no. DYC4528-5) provided the basic components required for the development of sandwich ELISAs to measure Focal Adhesion Kinase 1 (FAK) phosphorylated at Y397 in cell lysates. An immobilized capture antibody specific for FAK, also known as PTK2, binds both phosphorylated and unphosphorylated protein. After washing away unbound material, a biotinylated detection antibody specific for FAK phosphorylated at Y397 was used to detect only phosphorylated protein, utilizing a standard Streptavidin-HRP format. The cell line used for the assay was a stable HEK-FAK cell line overexpressing human FL FAK protein, which was generated as follows.
HEK293 cells (ATCC® CRL-1573™, 10801 University Boulevard, Manassas, Va. 20110 USA) were seeded in four 100 mm petri dishes at a seeding density of 1.5×10^6 cells per plate and incubated overnight at 37° C. in a 5% CO2 incubator. The transfection mix was prepared as follows. (A) 10 μg DNA (pCDNA4 V5/HisA vector containing Zeocin as mammalian selection marker, procured from Invitrogen) with the full length human FAK gene represented by the nucleotide sequence provided in NCBI Reference Sequence: NM_153831.3, SEQ ID NO: 1:
was added to 1.5 mL Opti-MEM® (reduced serum media is a modification of Eagle's Minimum Essential Media, buffered with HEPES and sodium bicarbonate and supplemented with hypoxanthine, thymidine, sodium pyruvate, L-glutamine, trace elements and growth factors commercially available from Invitrogen) and incubated at room temperature for 5 minutes. (B) 30 μL Lipofectamine™ Transfection reagent (Life Technologies) was added to 1.5 mL Opti-MEM® and incubated at room temperature for 5 minutes. Following this, (a) and (b) were mixed and incubated at room temperature for 20 minutes. Media was removed from cells and washed with 1× phosphate buffered saline (PBS) and the transfection mix prepared above was mixed with 3 mL of Opti-MEM®, added to the cells and incubated at 37° C. Four hours later, 6 mL of 20% Dulbecco's Modified Eagle Medium (DMEM) was added to the plates and incubated at 37° C. in a 5% CO2 incubator. Approximately 72 hours after transfection, cells were subcultured at various dilutions with fresh medium containing 0.8 mg/mL Zeocin™ (Life Technologies). Cells were replenished with selective medium every 3-4 days until cell foci were identified in the FAK transfected cells and most of the cells died in the control plates. Cells from these foci were grown in the presence of selective media and the expression of FAK was confirmed by Western Blotting. Over expression of FAK in the stably-transfected cells was quantified in the cell-based ELISA assay described below by determining the signal window, with a signal window of 2 or above considered to be robust). The HEK-FAK stable cell line thus was maintained in 0.8 mg/mL Zeocin™ (Life Technologies) and used in cell-based ELISA to assess autophosphorylation of FAK.
(i) Materials • 1. Phospho-FAK (Y397)-Capture Antibody • 2. Phospho-FAK (Y397)-Detection Antibody • 3. Streptavidin-HRP • 4. Cells used for the assay-HEK over expressing human FL FAK protein
(ii) Solutions • PBS—137 mM NaCl, 2.7 mM KCl, 8.1 mM Na2HPO4, 1.5 mM KH2PO4, pH 7.2-7.4, 0.2 μm filtered. • Wash Buffer—0.05% Tween20™ in PBS, pH 7.2-7.4 • Block Buffer—1% BSA, 0.05% NaN3, in PBS, pH 7.2-7.4. • IC Diluent #1-1% BSA in PBS, pH 7.2-7.4, 0.2 μm filtered. • IC Diluent #8-1 mM EDTA, 0.5% Triton™ X-100, 5 mM NaF in PBS, pH 7.2-7.4. IC Diluent #8 was also the base buffer for IC Diluent #3, IC Diluent #7, and Lysis. • Buffer #6. […]

recombinant human FAK1 = target: T2, recombinant human FAK1 (Homo sapiens, UniProt Q05397); assay: FAK1 HTRF assay; assay type: biochemical
T2 construct: fused on or other part: N-terminal 6xHis tag
T2 sequence (Q05397 422-680 limits assumed): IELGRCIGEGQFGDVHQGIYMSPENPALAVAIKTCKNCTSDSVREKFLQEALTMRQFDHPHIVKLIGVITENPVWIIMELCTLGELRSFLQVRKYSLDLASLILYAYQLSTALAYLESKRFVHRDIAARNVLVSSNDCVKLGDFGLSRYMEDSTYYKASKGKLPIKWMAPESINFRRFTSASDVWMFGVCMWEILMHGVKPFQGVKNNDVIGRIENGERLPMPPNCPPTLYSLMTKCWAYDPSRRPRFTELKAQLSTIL
Method in brief: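 IC50 values derive from HTRF % inhibition (ratio 665/620 nm, Eu–anti-phosphotyrosine 0.1 nM, SA-APC 12 nM). The kinase step ran 45 min at room temperature, pairing 10 nM His-FAK1(692–end) from baculovirus with 0.5 μM gastrin Tyr87 biotin-peptide and a reagent at 10 μM final, pH 7.4. Compound dilutions began at 10 μM.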

Recombinant Src enzyme = target: T3, Recombinant Src enzyme (Homo sapiens, UniProt P12931); assay: Src HTRF assay; assay type: biochemical
T3 construct: purchased Millipore 14-326; host or cells: Sf21 insect cells
T3 sequence (P12931 whole entry): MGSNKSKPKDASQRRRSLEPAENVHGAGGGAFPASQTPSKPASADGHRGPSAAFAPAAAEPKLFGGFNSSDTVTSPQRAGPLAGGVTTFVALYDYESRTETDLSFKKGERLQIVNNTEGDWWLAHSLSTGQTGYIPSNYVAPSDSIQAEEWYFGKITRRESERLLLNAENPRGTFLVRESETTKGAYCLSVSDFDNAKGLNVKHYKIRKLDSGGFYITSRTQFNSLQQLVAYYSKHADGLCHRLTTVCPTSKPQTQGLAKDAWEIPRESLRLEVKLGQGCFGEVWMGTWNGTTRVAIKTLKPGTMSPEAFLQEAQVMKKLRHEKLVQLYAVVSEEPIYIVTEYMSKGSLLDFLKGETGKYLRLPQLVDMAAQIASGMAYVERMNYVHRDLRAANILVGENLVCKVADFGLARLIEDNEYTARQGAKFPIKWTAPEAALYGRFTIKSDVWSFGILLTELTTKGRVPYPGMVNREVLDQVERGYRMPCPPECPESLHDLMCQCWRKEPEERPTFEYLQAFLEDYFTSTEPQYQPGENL
Method in brief: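 Run as for the FAK HTRF assay (same buffer, supplements, compound preparation and procedure), with dasatinib included. Reaction contained 0.5 μM biotin-tagged Tyk2 synthetic peptide, 5 nM Src made in Sf21 cells, and a pH7.4-buffer-prepared component at 10 μM final.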

AURKB (Aurora B) enzyme = target: T4, AURKB (Aurora B) enzyme (Homo sapiens, UniProt Q96GD4); assay: Aurora B HTRF assay; assay type: biochemical; conditions: read-out: AuroraB IC50
T4 construct: purchased Invitrogen PVR 130
T4 sequence (Q96GD4 whole entry): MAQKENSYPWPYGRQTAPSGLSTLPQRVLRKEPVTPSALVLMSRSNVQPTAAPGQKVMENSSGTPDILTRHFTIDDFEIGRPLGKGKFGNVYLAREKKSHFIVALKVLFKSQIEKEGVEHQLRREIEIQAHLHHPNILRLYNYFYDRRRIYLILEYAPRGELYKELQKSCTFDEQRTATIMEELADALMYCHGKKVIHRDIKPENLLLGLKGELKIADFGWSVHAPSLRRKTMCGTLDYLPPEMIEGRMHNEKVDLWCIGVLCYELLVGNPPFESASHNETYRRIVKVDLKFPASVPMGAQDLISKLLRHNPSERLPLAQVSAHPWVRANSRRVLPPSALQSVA
Method in brief: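 Enzyme (5 nM final) and ULight-labelled PLK Ser137 peptide (50 nM) reacted 1 h at room temperature; a 30 μM final component was also present. Detection used EDTA-containing buffer with europium anti-phospho-PLK(Ser137) antibody at 2 nM, 1 h, then time-resolved FRET readout.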

[2] = read-out: pFAK EC50 (μM) HEK stb

T1 sequence (Q05397 whole entry): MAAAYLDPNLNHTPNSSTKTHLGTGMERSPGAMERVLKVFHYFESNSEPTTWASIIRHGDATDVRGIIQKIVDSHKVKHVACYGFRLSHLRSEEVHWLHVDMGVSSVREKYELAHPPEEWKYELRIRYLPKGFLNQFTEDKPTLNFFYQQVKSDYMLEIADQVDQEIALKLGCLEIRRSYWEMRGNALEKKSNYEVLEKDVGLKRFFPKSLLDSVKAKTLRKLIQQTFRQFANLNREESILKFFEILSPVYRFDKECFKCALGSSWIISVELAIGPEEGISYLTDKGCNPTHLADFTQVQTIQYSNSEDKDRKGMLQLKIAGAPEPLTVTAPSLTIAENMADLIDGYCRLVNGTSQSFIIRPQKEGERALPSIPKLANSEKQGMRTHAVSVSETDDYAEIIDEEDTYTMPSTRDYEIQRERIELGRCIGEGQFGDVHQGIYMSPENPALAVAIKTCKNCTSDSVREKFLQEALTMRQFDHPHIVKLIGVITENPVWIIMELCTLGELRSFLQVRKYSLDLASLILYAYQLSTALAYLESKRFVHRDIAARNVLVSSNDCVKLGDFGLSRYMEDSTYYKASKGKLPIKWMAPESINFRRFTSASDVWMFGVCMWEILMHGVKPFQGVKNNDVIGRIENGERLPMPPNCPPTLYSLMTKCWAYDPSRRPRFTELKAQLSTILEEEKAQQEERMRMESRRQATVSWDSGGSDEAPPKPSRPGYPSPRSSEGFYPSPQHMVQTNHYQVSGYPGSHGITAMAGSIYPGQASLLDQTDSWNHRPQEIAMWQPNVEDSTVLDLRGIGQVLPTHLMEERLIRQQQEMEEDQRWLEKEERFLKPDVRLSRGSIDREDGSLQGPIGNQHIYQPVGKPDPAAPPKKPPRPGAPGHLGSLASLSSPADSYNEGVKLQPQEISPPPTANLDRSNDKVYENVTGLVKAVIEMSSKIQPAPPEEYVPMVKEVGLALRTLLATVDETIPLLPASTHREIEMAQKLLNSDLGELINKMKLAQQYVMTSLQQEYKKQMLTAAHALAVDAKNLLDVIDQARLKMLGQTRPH

Row | EC50 [1, 2] [µM] | SMILES | other results
1 | > 1 | CN(c1ccccc1Cn1ccc2cnc(Nc3ccc(N4CCNCC4)c(CO)c3)nc21)S(C)(=O)=O [Example 568] | 
2 |  | Cc1cc(Nc2ncc3ccn(Cc4cccnc4N(C)S(C)(=O)=O)c3n2)ccc1C1CCN(CCO)CC1 [Example 887] | EC50 ([1]; read-out: pFAK EC50 HEK stb): > 1 µM
3 | > 1 | CN(c1ncccc1Cn1ccc2cnc(Nc3ccc(N4CCCC(N)C4)cc3)nc21)S(C)(=O)=O (centres unmarked) [Example 776] | 
4 | > 1 | C[C@@H]1CN(c2ccc(Nc3ncc4c(n3)N(c3ccccn3)CC4(C)C)cc2)CCN1 [Example 726] | 
5 | > 1 | CN(c1ncccc1Cn1ccc2cnc(Nc3ccc4[nH]c(C5CCNCC5)cc4c3)nc21)S(C)(=O)=O [Example 677] | 
6 | > 1 | CN(c1ncccc1Cn1ccc2cnc(Nc3ccc(N4CCNC(CF)C4)cc3)nc21)S(C)(=O)=O (centres unmarked) [Example 737, N-(3-((2-((4-(3-(fluoromethyl)piperazin-1-yl)phenyl)amino)-7H-pyrrolo[2,3-d]pyrimidin-7-yl)methyl)pyridin-2-yl)-N-methylmethanesulfonamide] | 
7 | > 1 | CN(c1ncccc1Cn1ccc2cnc(Nc3ccc(N4CCNC(C)(C)C4=O)cc3)nc21)S(C)(=O)=O [Example 540] | 
8 | > 1 | CN(c1ncccc1Cn1ccc2cnc(Nc3ccc(N4CC5CC4CN5)cc3)nc21)S(C)(=O)=O (centres unmarked) [Example 372] | 
9 | > 1 | CN(c1ncccc1Cn1ccc2cnc(Nc3ccc4[nH]ccc4c3)nc21)S(C)(=O)=O [Example 667] | 
10 | > 1 | COc1c(Nc2ncc3ccn(Cc4ccccc4N(C)S(C)(=O)=O)c3n2)ccc(N2CCNCC2)c1F [Example 456] | 
11 | > 1 | CN(c1ncccc1Cn1ccc2cnc(Nc3ccc(OCCN4CCOCC4)cc3)nc21)S(C)(=O)=O [Example 613] | 
12 | > 1 | CN(C)C1CCN(c2ccc(Nc3ncc4ccn(Cc5cccnc5N(C)S(C)(=O)=O)c4n3)cc2)CC1 [Example 530] | 
13 | > 1 | CN1CCCN(c2ccc(Nc3ncc4ccn(Cc5ccccc5N(C)S(C)(=O)=O)c4n3)cc2)CC1 [Example 520] | 
14 | > 1 | CN(c1ncccc1Cn1ncc2cnc(Nc3ccc(N4CCC(O)CC4)cc3)cc21)S(C)(=O)=O [Example 394] | 
15 | > 1 | O=S(=O)(c1ccccc1Cl)n1ncc2cnc(Nc3ccc(N4CCNCC4)cc3)nc21 [Example 254] | 
16 |  | CNC(=O)c1ccc(Nc2ncc3ccn(Cc4cccnc4N(C)S(C)(=O)=O)c3n2)cc1 [Example 982] | EC50 ([1]; read-out: pFAK EC50 HEK stb): > 1 µM
17 | > 1 | CC1(C)CN(S(=O)(=O)c2ccccc2OC(F)F)c2nc(Nc3ccc(N4CCNCC4)cc3)ncc21 [Example 464] | 
18 | > 1 | CN(c1ccccc1Cn1ccc2cnc(Nc3ccc4[nH]c(C(=O)N5CCNCC5)cc4c3)nc21)S(C)(=O)=O [Example 698] | 
19 | > 1 | CN(c1ncccc1Cn1ccc2cnc(Nc3ccc4c(c3)OCCN4)nc21)S(C)(=O)=O [Example 221] | 
20 | > 1 | O=S(=O)(c1cccc(Cl)c1)n1ncc2cnc(Nc3ccc(N4CCNCC4)cc3)cc21 [Example 308] | 
21 | > 1 | C[C@H]1CN(C)CCN1c1ccc(Nc2ncc3ccn(Cc4cccnc4N(C)S(C)(=O)=O)c3n2)cc1 [Example 497] | 

Row | EC50 [1, 2] [µM] | SMILES | other results
22 | > 1 | CN(c1ccccc1Cn1ccc2cnc(Nc3ccc4c(c3)C(=O)NC4=O)nc21)S(C)(=O)=O [Example 435] | 
23 | > 1 | CN(c1ncccc1Cn1ccc2cnc(Nc3ccc4[nH]c(C(=O)N5CCNCC5)cc4c3)nc21)S(C)(=O)=O [Example 696] | 
24 | > 1 | CN(c1ncccc1Cn1ccc2cnc(Nc3ccc(-c4ccc(=O)[nH]c4)cc3)nc21)S(C)(=O)=O [Example 688] | 
25 | > 1 | C[C@@H]1CN(c2ccc(Nc3ncc4ccn(Cc5cccnc5N(C)S(C)(=O)=O)c4n3)cc2F)CCN1 [Example 561] | 
26 |  | O=S(=O)(c1cccc2cccnc12)n1ncc2cnc(Nc3ccc(N4CCC(O)CC4)cc3)cc21 [Example 345] | IC50 (recombinant human FAK1): < 0.02 µM; IC50 (Recombinant Src enzyme): > 1 µM; IC50 (AURKB (Aurora B) enzyme): < 0.02 µM
27 | > 1 | C[C@H](O)CN1CCN(c2ccc(Nc3ncc4ccn(Cc5cccnc5N(C)S(C)(=O)=O)c4n3)cc2)C[C@H]1C [Example 694] | 
28 | > 1 | CN(c1ncccc1Cn1ccc2cnc(Nc3ccc4c(c3)CC3CNCCN43)nc21)S(C)(=O)=O (centres unmarked) [Example 538] | 
29 |  | CS(=O)(=O)N(CCN)c1ccccc1Cn1ccc2cnc(Nc3ccc(N4CCNCC4)cc3)nc21 [Example 558] | IC50 (recombinant human FAK1): > 1 µM; IC50 (Recombinant Src enzyme): > 1 µM; IC50 (AURKB (Aurora B) enzyme): > 1 µM
30 |  | COc1cc(N2CCN(C)CC2)ccc1Nc1ncc2c(n1)N(S(=O)(=O)c1cccc3cccnc13)CC2(C)C [Example 504] | IC50 (recombinant human FAK1): < 0.02 µM; IC50 (Recombinant Src enzyme): > 1 µM; IC50 (AURKB (Aurora B) enzyme): > 1 µM
31 | > 1 | CN(c1ncccc1Cn1ccc2cnc(Nc3ccc(N4CCCNCC4)cc3)nc21)S(C)(=O)=O [Example 549] | 
32 | > 1 | C[C@H](O)CN1CCN(c2ccc(Nc3ncc4ccn(Cc5cccnc5N(C)S(C)(=O)=O)c4n3)cc2)C[C@@H]1C [Example 663, N-(3-((2-((4-((S)-4-((S)-2-Hydroxypropyl)-3-methylpiperazin-1-yl)phenyl)amino)-7H-pyrrolo[2,3-d]pyrimidin-7-yl)methyl)pyridin-2-yl)-N-methylmethanesulfonamide] | 
33 | > 1 | CN(c1ncccc1Cn1ccc2cnc(Nc3ccc(NC4CCNCC4)cc3)nc21)S(C)(=O)=O [Example 684] | 
34 | > 1 | CN(C)C1CCN(c2ccc(Nc3ncc4ccn(Cc5cccnc5N(C)S(C)(=O)=O)c4n3)cc2)C1 (centres unmarked) [Example 589] | 
35 |  | COc1ccccc1S(=O)(=O)n1ccc2cnc(Nc3ccc(N4CCNCC4)cc3)cc21 [Example 343] | IC50 (recombinant human FAK1): < 0.02 µM; IC50 (Recombinant Src enzyme): > 1 µM; IC50 (AURKB (Aurora B) enzyme): < 0.02 µM
36 | > 1 | C[C@H]1CN(c2ccc(Nc3ncc4ccn(Cc5ccccc5NS(=O)(=O)CCCF)c4n3)cc2)CCN1 [Example 723] | 
37 | > 1 | CN(C)C1CN(c2ccc(Nc3ncc4ccn(Cc5cccnc5N(C)S(C)(=O)=O)c4n3)cc2)C1 [Example 580] | 
38 |  | CN(c1ccccc1C(=O)N1CC(C)(C)c2cnc(Nc3ccc(N4CCNCC4)cc3)nc21)S(C)(=O)=O [Example 528] | IC50 (recombinant human FAK1): > 1 µM; IC50 (Recombinant Src enzyme): > 1 µM; IC50 (AURKB (Aurora B) enzyme): > 1 µM
39 | > 1 | CN1C(=O)Cc2cc(Nc3ncc4ccn(Cc5cccnc5N(C)S(C)(=O)=O)c4n3)ccc21 [Example 560] | 
40 | > 1 | C[C@@H]1CN(c2ccc(Nc3cc4c(ccn4S(=O)(=O)c4ccccc4C#N)cn3)cc2)CCN1 [Example 537] | 
41 |  | CN1C(=O)CCc2cc(Nc3ncc4ccn(Cc5cccnc5N(C)S(C)(=O)=O)c4n3)ccc21 [Example 136] | IC50 (recombinant human FAK1): < 0.02 µM; IC50 (Recombinant Src enzyme): < 0.02 µM; IC50 (AURKB (Aurora B) enzyme): < 0.02 µM
